From patent publication US12274703B2, “Compositions and methods of treatment for neurological disorders comprising a dementia” (Gliapharm SA, priority 2017, dated 2025)
Where two headings read alike, the source gives them in different places.

Assays:
astrocytes [1] = test: MTT viability assay; format: cell-based; conditions: Mus musculus, Astrocyte; CDC54K hits; cellular toxicity, 0-200 uM
Method: (§1) Primary cultures of cerebrocortical astrocytes were obtained from 1-2-day-old OF1 mouse pups (Charles River Laboratories). Briefly, cortices were isolated and minced in small pieces under a dissecting microscope. The cells were incubated for 30 min at 37° C. in a solution containing 20 U/ml of papain enzyme (Worthington Biochemical), L-cysteine 1 mM (Sigma), and 10 kU/ml DNase I (Worthington Biochemical) for an enzymatic dissociation. Papain activity was stopped by the addition of fetal calf serum (FCS) to the solution, and a single-cell suspension was then obtained by mechanical dissociation, which consisted in cells trituration in a DMEM (D7777, Sigma-Aldrich) medium (supplemented with 44 mm NaHCO3, and 10 ml/L antibiotic/antimycotic solution) containing 10% FCS. The cells were seeded at an average density of 6×10^4 cells/cm^2 in poly-D-lysine-coated 96, 12 or 6-well culture plates, depending on their use, and incubated at 37° C. in a humidified atmosphere containing 5% CO2/95% air. Culture medium was renewed twice per week. Cells were stimulated and harvested between DIV14 and DIV17, when confluence and cell growth were optimal.
For cell toxicity determination, astrocytes in 96-well plates were stimulated 24 h (37° C. 5% CO2/95% air) with a gradient ranging from 0.1 to 200 μM of tested compounds. After stimulation, 5 mg/ml thiazol blue tetrazolium bromide (MTT, Sigma-Aldrich) in warm D5030 complete medium was added to each well, and cells were incubated for 4 h at 37° C. (5% CO2). The medium was then removed by aspiration, and the reaction was stopped by the addition of 50 μl DMSO per well.
The amount of reduced MTT (formazan) solubilized in DMSO was then determined spectrophotometrically using absorbance at 570 nm (Safire 2; Tecan).
MTT cellular viability assay was performed on astrocytes exposed to molecules from the Prestwick library (Prestwick hits; concentrations ranging from 0 uM to 200 uM).
MTT cellular viability assay was performed on astrocytes exposed to CDC54K hits (concentrations ranging from 0 uM to 200 uM).

primary astrocytes = test: High throughput screening for lactate secretion: acidification of extracellular medium (SNARF5); format: cell-based, mouse; design: key to Score / HTS Score (lactate) / HTS Score (SNARF5) / Score_SNARF: fraction of positive control activity (positive control = 100%); conditions: for Score_SNARF: primary screening confirmation (SNARF5); for Score / HTS Score (SNARF5) / Emax at 10 µM: 10 uM, 90 min; for Emax at 10 µM: Mus musculus, Astrocyte, 1.5 h
In short: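 Mouse cortical astrocytes (DIV17) stimulated 90 min at 10 uM compound (1% DMSO) in low-bicarbonate DMEM, 5 mM glucose, with SNARF-5F; extracellular acidification read as 630/580 nm emission ratio (exc 480 nm). Duplicates; score as % of CCCP 2 uM control, hits >3× summed SD above DMSO.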

astrocytes [2] = test: Extracellular lactate quantification; format: cell-based, mouse; conditions: for Score_LACTATE: Appendix I, secondary screening, dosage of extracellular lactate; for EC50: Mus musculus, Astrocyte
In short: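 Primary cortical astrocytes from 1–2-day-old OF1 mouse pups, used at DIV14–17, stimulated 90 min at 37 °C in D5030 with 5 mM glucose, compounds 0–100 μM. Extracellular L-lactate measured enzymatically (LDH/NAD, pH 10, 1 h 37 °C) by NADH fluorescence (ex 340/em 450) against L-lactate standard curve.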

astrocytes [3] = test: Production of H2O2 (mitochondrial activity); format: cell-based; conditions: Mus musculus, Astrocyte, 1.5 h; CDC54K hits; 0-200 uM, 90 min
Method: as §1
Hydrogene peroxide (H2O2) released in the supernatant is detected enzymatically with Amplex red (Zhou, Diwu et al. 1997). Oxidation of Amplex red is catalysed by the horseradish peroxidase in presence of H2O2 into highly fluorescent resorufin. Fluorescence measure is read at 545 nm extinction, 590 nm emission. The amount of H2O2 was expressed relatively to the proteins content extracted from the cells in culture. […]
Mitochondrial respiration in astrocytes was measured through production of H2O2 at 90 min after stimulation with CDC54K hits (ranging from 0 to 200 uM).

[4] = Appendix I, primary screening, relative to positive control
[5] = CDC54K hits, relative to positive control CCCP 2 uM
[6] = 1.5 h, CDC54K hits, 0-100 uM, 90 min, read-out: Lactate EC50
[7] = Appendix I, primary screening, relative to positive control, read-out: Score
[8] = CDC54K hits, relative to positive control CCCP 2 uM, read-out: HTS Score (SNARF5)

Cc1ccccc1NC(=O)C1CCCN(c2ncnc3oc(C)c(C)c23)C1 (stereo not shown) [F228-0422]
IC50 (astrocytes [1]): > 200 µM | Score_SNARF (primary astrocytes; Appendix I): 0.7702 | Score (primary astrocytes; [4]): 1.057 | HTS Score (SNARF5) (primary astrocytes; [5]): 1.058 | Score_LACTATE (astrocytes [2]): 0.6364 | EC50 (astrocytes [2]; [6]): 0.5 µM | IC50 (astrocytes [3]): > 200 µM

COc1ccccc1[N+]1=C2CCCCCN2C(O)(c2ccc(C)cc2)C1 (stereo not shown) [K404-0834]
IC50 (astrocytes [1]): 150 µM | Emax at 10 µM (primary astrocytes; [7]): 112% | Emax at 10 µM (primary astrocytes; [8]): 112% | EC50 (astrocytes [2]; [6]): 1.8 µM | IC50 (astrocytes [3]): > 200 µM

CCc1nc(-c2csc(S(=O)(=O)NCc3ccc4c(c3)OCO4)c2)no1 [L287-0468]
IC50 (astrocytes [1]): > 200 µM | Score_SNARF (primary astrocytes; Appendix I): 0.6592 | Score (primary astrocytes; [4]): 0.5971 | HTS Score (SNARF5) (primary astrocytes; [5]): 0.597 | Score_LACTATE (astrocytes [2]): 0.6179 | EC50 (astrocytes [2]; [6]): 7.9 µM | IC50 (astrocytes [3]): > 200 µM

CCn1nccc1-c1csc(S(=O)(=O)Nc2ccc(Cl)cc2F)c1 [L924-1031]
IC50 (astrocytes [1]): > 200 µM | Score_SNARF (primary astrocytes; Appendix I): 0.8713 | Score (primary astrocytes; [4]): 0.9286 | HTS Score (SNARF5) (primary astrocytes; [5]): 0.929 | Score_LACTATE (astrocytes [2]): 1.632 | EC50 (astrocytes [2]; [6]): 25.3 µM | IC50 (astrocytes [3]): 48.6 µM

CC(=O)N1CCc2sc(S(=O)(=O)N3CCN(c4ccccc4C)CC3)cc2C1 [P025-0159]
IC50 (astrocytes [1]): > 200 µM | Score_SNARF (primary astrocytes; Appendix I): 0.8007 | Score (primary astrocytes; [4]): 0.9535 | HTS Score (SNARF5) (primary astrocytes; [5]): 0.953 | Score_LACTATE (astrocytes [2]): 0.9232 | EC50 (astrocytes [2]; [6]): 8.7 µM | IC50 (astrocytes [3]): > 200 µM

COc1ccc(Nc2nc(N3CCOCC3)c3ccccc3n2)cc1.Cl [T0508-5190]
IC50 (astrocytes [1]): 75 µM | Emax at 10 µM (primary astrocytes; [7]): 45.9% | Emax at 10 µM (primary astrocytes; [8]): 45.9% | EC50 (astrocytes [2]; [6]): 3.1 µM | IC50 (astrocytes [3]): 185 µM

c1ccc2c(c1)CCN(c1ncnc3sccc13)C2 [T0517-8250]
IC50 (astrocytes [1]): 140 µM | Emax at 10 µM (primary astrocytes; [7]): 95.7% | Emax at 10 µM (primary astrocytes; [8]): 95.7% | EC50 (astrocytes [2]; [6]): 3 µM | IC50 (astrocytes [3]): > 200 µM

N#Cc1ccc(C(=O)N2CCC(Nc3ncnc4c3CCC4)C2)cc1 (stereo not shown) [T636-2387]
IC50 (astrocytes [1]): > 200 µM | HTS Score (SNARF5) (primary astrocytes; [5]): 0.445 | Emax at 10 µM (primary astrocytes; [7]): 44.5% | Score Lact. (astrocytes [2]; Appendix II): 0.30 | EC50 (astrocytes [2]; [6]): 11.5 µM | EC50 (astrocytes [2]; Appendix II, lactate secretion, read-out: EC50): 6.83 µM | IC50 (astrocytes [3]): > 200 µM

COc1cc(C)c(Cl)cc1S(=O)(=O)NCc1ccncc1 [T5580243]
IC50 (astrocytes [1]): > 200 µM | Score_SNARF (primary astrocytes; Appendix I): 0.8565 | Score (primary astrocytes; [4]): 0.8528 | HTS Score (SNARF5) (primary astrocytes; [5]): 0.853 | Score_LACTATE (astrocytes [2]): 0.7229 | EC50 (astrocytes [2]; [6]): 11 µM | IC50 (astrocytes [3]): > 200 µM

O=C1CCCN1c1ccc(S(=O)(=O)Nc2cccc(/C=C/c3ccccn3)c2)cc1 [T5644989]
IC50 (astrocytes [1]): > 200 µM | Score_SNARF (primary astrocytes; Appendix I): 0.8385 | Score (primary astrocytes; [4]): 0.6796 | HTS Score (SNARF5) (primary astrocytes; [5]): 0.68 | Score_LACTATE (astrocytes [2]): 0.7859 | EC50 (astrocytes [2]; [6]): 7.9 µM | IC50 (astrocytes [3]): > 200 µM

O=S(=O)(Nc1cc(F)cc(F)c1)c1ccc2ccccc2c1 [T5884038]
IC50 (astrocytes [1]): 70.5 µM | Emax at 10 µM (primary astrocytes; [7]): 72.1% | Emax at 10 µM (primary astrocytes; [8]): 72.1% | EC50 (astrocytes [2]; [6]): 12.2 µM | IC50 (astrocytes [3]): > 200 µM

Cc1nc2ccc(NS(=O)(=O)c3cccc(F)c3)cc2s1 [T6937001]
IC50 (astrocytes [1]): > 200 µM | Score_SNARF (primary astrocytes; Appendix I): 0.8557 | Score (primary astrocytes; [4]): 0.8094 | HTS Score (SNARF5) (primary astrocytes; [5]): 0.809 | Score_LACTATE (astrocytes [2]): 0.9088 | EC50 (astrocytes [2]; [6]): 11.5 µM | IC50 (astrocytes [3]): > 200 µM
